Patent US12628750B2, “Plant cell chromosome doubling by application of electromagnetic field” (SYNGENTA CROP PROTECTION AG, priority 2020, dated 2026)
“And” between values parts separate entries of the source, which are not always exact repeats. Identical values can stand only once.

Experiments:
[1] = test system: transgenic tobacco (Nicotiana tabacum) BY-2 cell line; assay: Phragmoplast count by confocal microscopy in synchronized GFP-tubulin BY-2 cells; format: cell-based; settings: 1.25 mM colchicine; n=3; * p≤0.05 vs No EMF
Excerpt: (§1) The transgenic tobacco (Nicotiana tabacum) BY-2 cell line was obtained from RIKEN BioResource Research Center (epd.brd.riken.jp/en/). This cell line expresses green fluorescent protein (“GFP”) fused to tobacco α-tubulin. See F. Kumagai, et al., Fate of nascent microtubules organized at the M/G1 interface, as visualized by synchronized tobacco BY02 cells stably expressing GFP-tubulin: Time-sequence observations of the reorganization of cortical microtubules in living plant cells, PLANT & CELL PHYS. 42:723-732 (2001). When viewed with a fluorescence microscope, the microtubules fluoresce and enable visualization of microtubule polymerization, including, e.g., spindle fiber and phragmoplast formation during cell division. The BY-GT16 cells were grown in modified LS media supplemented with 0.2 mg/L of 2,4-D. The cells were maintained in the dark at 27° C. on a rotary shaker at 130 rpm, with sub-culturing at 7-day intervals.
To aid visualization and increase the likelihood of observing a plurality of cells undergoing mitosis after S-phase, the BY-GT16 cells were synchronized. […]
After washing the aphidicolin from the cells, the cells were permitted to restart normal cellular processes for six hours (i.e., the cells were “released”). […] The oscilloscope monitored the sinusoidal variation of the EMF applied to the cells in the cuvette as a function of time. […]

[2] = test system: transgenic tobacco (Nicotiana tabacum) BY-2 cell line; assay: Cell viability by trypan blue staining in synchronized BY-2 cells; format: cell-based
Excerpt: as §1
To aid visualization and increase the likelihood of observing a plurality of cells undergoing mitosis after S-phase, the BY-GT16 cells were synchronized. To do so, […] of 7-day old suspension culture was transferred into 14 mL of BY-2 media (recipes below in Example 4). To the new suspension, 14 μL aphidicolin (5 mg/mL) was added, and the suspension was incubated in the dark for 24 hours at 25° C. on a rotary shaker at 130 rpm. After incubation, the aphidicolin was removed by washing ten times with 16 mL of sterile BY-2 medium. At the end of the last wash, the cells were resuspended in 16 mL of fresh BY-2 medium and returned the washed suspension to the incubator. BY-2 cells reach maximum mitotic index after approximately eight hours. Generally, peak numbers of cells with phragmoplasts were observed approximately eleven hours after washing. Thus, the plurality of cells was reasonably synchronized.
After washing the aphidicolin from the cells, the cells were permitted to restart normal cellular processes for six hours (i.e., the cells were “released”). Next, the population of synchronized cells were prepared for placement in an EMF apparatus (FIG. 1). At that point, 775 μL of cell culture was placed into a 4 mm electroporation cuvette, which was held in place in the cavity of the apparatus using a plastic frame. The plastic frame was designed to fit inside a cavity of the apparatus and was created by 3D-printing. The frame was designed to be placed inside the cavity such that the electrodes (210 and 220) from the Amplifier (200) are able to stably contact the rigid surfaces of the metal plates (Terminals 310 and 320) defining the Cavity (300), which in this instance was configured to hold the cuvette (FIG. 1). The Function Generator (100) was connected to the amplifier and was used to control the frequency (kHz) and field intensity (effective V/cm in the cuvette) of the applied EMF. An optional Oscilloscope (400) was also attached to the positive electrode (210) at the point of contact with the metal plate (310) of the Cavity (FIG. 2). The oscilloscope monitored the sinusoidal variation of the EMF applied to the cells in the cuvette as a function of time.
For the time period between Hours 7 and 11 after mitotic release of the cells, the EMF was applied to the cells in the cuvette (for a total duration of four hours). After application, the Function Generator (100) was turned off and the cells were removed for viability staining and phragmoplast observation. The remaining cells were fixed in paraformaldehyde for later observation.
To determine at what frequency or range of frequencies the BY-2 mitotic structures would be susceptible to the effects of the EMF, frequency tests were conducted in pairs with controls. The controls included a “No Treatment” control where no EMF was applied over the course of several sessions (see “Date of Experiment” column). Since EMF is generated via application of an AC voltage, in some tests, the controls included the application of a corresponding DC voltage. […]

BMS cell culture = assay: Nuclear ploidy analysis (Sysmex Ploidy Analyzer) of BMS cell suspension culture after treatment; format: cell-based
Protocol: A BMS cell culture was obtained and maintained in liquid MS media supplemented with 2 mg/L of 2,4-D as described in Green and Phillips (1975). Five to seven days after subculture, the liquid cell culture was placed in a […] gap electroporation cuvette and exposed to EMF application at a frequency of 275 kHz, intensity of 25 V/cm, for a duration of 18 hours with constant shaking at room temperature to disrupt spindle fiber formation and interfere with mitosis. For each treatment, three other tests were also setup from the same culture: (i) 1.25 mM colchicine-treatment, (ii) no treatment culture in an electroporation cuvette, and (iii) no treatment culture that remained in the incubator flask. This duration allows for DNA replication without cell division, thereby causing chromosome doubling.
To measure doubling immediately after treatment, cell culture was prepared for nuclear ploidy analysis first by protoplasting cells for 3 hours in plant protoplast digest/wash buffer (Sigma-Aldrich® D9692) containing 1% cellulase R-10 (GoldBio™ C8001.0001) and 0.1% macerozyme R-10 (GoldBio™ M8002.0001) at 25 C with shaking at 120 rpm. After protoplasting, cells were pelleted by centrifugation at 14000 rpm for 1 min in a tabletop microcentrifuge and protoplast buffer was removed with a pipette. The cells were then resuspended by pipetting in 400 μl of nuclei extraction buffer (Sysmex®, CyStain® UV Precise P Nuclei Extraction Buffer, 05-5002) and mixed with 800 μl of nuclei staining solution (Sysmex®, CyStain® UV Precise P Staining Buffer, 05-5002). The stained nuclei were then passed through a 30 μm filter (Sysmex®, Non-sterile CellTrics® Filter, Green, 04-0042-2316) into the collection cuvette, and the filter rinsed with an additional 800 μl of nuclei staining solution. The cuvette was then loaded into a Sysmex® Ploidy Analyzer (CyFlow® Ploidy Analyzer, equipped with UV LED 365 nm laser) and data obtained for the entirety of the sample. Untreated BMS cell culture typically has 2-3 ploidy peaks, consistent with the majority of cells existing in a stable ploidy state (peak 1), and a minority of cells being in the process of mitosis and containing double the standard ploidy state (peak 2). […] The increase in the proportion of cells represented in the higher level peaks (3 and 4) was associated with a decrease in cells in the lower level peaks (1 and 2), providing direct evidence that field treatment doubled the genomes of cells moving them from peaks 1 and 2 into the category of peaks 3 and 4 (Table 4). To determine whether this change in the relative proportions of cell culture ploidy levels was statistically significant, eight experimental replicates were averaged and the values compared with pairwise T-tests (Table 5 and Table 6).

[3] = test system: haploid, diploid and interspecific hybrid embryos and seedlings; settings: cited from earlier work
[4] = 1.25 mM colchicine, trypan blue
[5] = 1.25 mM colchicine, 18 hours, single replicates

COc1cc2c(c(OC)c1OC)-c1ccc(OC)c(=O)cc1[C@@H](NC(C)=O)CC2 [Colchicine, colchicine]
Average Phragmoplasts (Normalized) [1]: 1.0*
Loss of viability compared to EMF treated cells ([2]; 1.25 mM colchicine vs 250 and 275 kHz EMF): higher loss of viability
Average Viability (Normalized) ([2]; 1.25 mM colchicine, n=3): 101%
Viability (Normalized to Control) ([2]; 1.25 mM colchicine, normalized to no treatment control): 112.4% and 94.1% and 95.4%
Dead Cells (Per 3 vertical columns) [2, 4]: 87 and 112 and 120
Live Cells (Per 3 vertical columns) [2, 4]: 732 and 740 and 766
Viability (% Live) [2, 4]: 89.4% and 86.9% and 86.5%
Proportion of Cells in Each Ploidy Peak (%): Peak 1 (BMS cell culture; [5]): 38.88% and 11.65% and 11.29% and 27.74% and 26.54% and 19.87% and 35.15% and 33.87%
Proportion of Cells in Each Ploidy Peak (%): Peak 2 (BMS cell culture; [5]): 57.77% and 59.12% and 74.64% and 57.21% and 57.50% and 58.10% and 54.88% and 53.99%
Proportion of Cells in Each Ploidy Peak (%): Peak 3 (BMS cell culture; [5]): 3.35% and 26.77% and 13.43% and 13.56% and 15.34% and 20.30% and 8.73% and 11.35%
Proportion of Cells in Each Ploidy Peak (%): Peak 4 (BMS cell culture; [5]): 0.00% and 2.46% and 0.64% and 1.49% and 0.62% and 1.72% and 1.23% and 0.79%
Avg Peak1% (BMS cell culture; average of 8 replicates): 25.62%
Avg Peak2% (BMS cell culture; average of 8 replicates): 59.15%
Avg Peak3% (BMS cell culture; average of 8 replicates): 14.10%
Avg Peak4% (BMS cell culture; average of 8 replicates): 1.12%
Cells of higher genome content compared to untreated controls (flask or cuvette) (BMS cell culture; pairwise T-tests, 8 replicates): significantly more cells of higher genome content
survival rate after chromosome doubling with colchicine [3]: less than 100%
fertility after chromosome doubling with colchicine ([3]; usually): less than 50%
